What was measured:
Wee1-like protein kinase [1] = molecular target: T1, Wee1-like protein kinase (Homo sapiens, UniProt P30291); experiment: Inhibition of human Wee1 (215 to 647 residues) using polyornithine/tyrosine (4:1) as substrate incubated for 5 mins in presence of ATP by micro beta plate reader analysis
LoVo [2] = experiment: Antiproliferative activity against human LoVo cells assessed as inhibition of cell growth incubated for 72 hrs by CCK-8 method; format: functional, cell-based
Wee1-like protein kinase [3] = molecular target: T1, Wee1-like protein kinase; experiment: Inhibition of Wee1 in human U2OS cells assessed as reduction in CDK1 phosphorylation measured for 1 hr by Western blot analysis; format: cell-based
LoVo [4] = experiment: Antitumor activity against human LoVo cells xenografted in female BALB/c nude mouse assessed as tumor growth inhibition at 60 mg/kg, IG administered once daily for 27 days; format: functional; conditions: po, 648 h, time 27 day, read-out: TGI
[5] = Metabolic stability in mouse liver microsome assessed as parent compound remaining measured at 60 mins by LCMS/MS analysis; format: ADME; conditions: liver microsomes, read-out: Stability
[6] = Volume of distribution in ICR mouse at 1 mg/kg, iv measured upto 24 hrs by LC-MS/MS analysis; format: ADME, organism-based; conditions: in vivo
[7] = AUC (0 to 24 hrs) in ICR mouse at 1 mg/kg, iv measured upto 24 hrs by LC-MS/MS analysis; format: ADME, organism-based; conditions: in vivo
[8] = Half life in ICR mouse at 1 mg/kg, iv measured upto 24 hrs by LC-MS/MS analysis; format: ADME, organism-based; conditions: in vivo
[9] = Bioavailability in ICR mouse at 60 mg/kg, IG measured upto 24 hrs by LC-MS/MS analysis; format: ADME, organism-based; conditions: in vivo, po
[10] = Clearance in ICR mouse at 1 mg/kg, iv measured upto 24 hrs by LC-MS/MS analysis; format: ADME, organism-based; conditions: in vivo
A-427 = experiment: Antiproliferative activity against human A-427 cells assessed as inhibition of cell growth incubated for 72 hrs by CCK-8 assay; format: functional, cell-based; conditions: A-427, 72 h
[11] = AUC (0 to 24 hrs) in ICR mouse at 60 mg/kg, IG measured upto 24 hrs by LC-MS/MS analysis; format: ADME, organism-based; conditions: in vivo, po
[12] = Metabolic stability in human liver microsome assessed as parent compound remaining measured at 60 mins by LCMS/MS analysis; format: ADME; conditions: liver microsomes, read-out: Stability
[13] = Toxicity in female BALB/c nude mouse xenografted with human LoVo cells assessed as body weight loss at 60 mg/kg, IG administered once daily for 27 days; format: organism-based; conditions: in vivo, po, 648 h, time 27 day
[14] = Acute toxicity in female C57 mouse assessed as body weight loss at 2000 mg/kg, IG measured for 7 days; format: organism-based; conditions: in vivo, po, 168 h, time 7 day
[15] = Half life in ICR mouse at 60 mg/kg, IG measured upto 24 hrs by LC-MS/MS analysis; format: ADME, organism-based; conditions: in vivo, po

T1 sequence (P30291 whole entry, the tested form may be a part): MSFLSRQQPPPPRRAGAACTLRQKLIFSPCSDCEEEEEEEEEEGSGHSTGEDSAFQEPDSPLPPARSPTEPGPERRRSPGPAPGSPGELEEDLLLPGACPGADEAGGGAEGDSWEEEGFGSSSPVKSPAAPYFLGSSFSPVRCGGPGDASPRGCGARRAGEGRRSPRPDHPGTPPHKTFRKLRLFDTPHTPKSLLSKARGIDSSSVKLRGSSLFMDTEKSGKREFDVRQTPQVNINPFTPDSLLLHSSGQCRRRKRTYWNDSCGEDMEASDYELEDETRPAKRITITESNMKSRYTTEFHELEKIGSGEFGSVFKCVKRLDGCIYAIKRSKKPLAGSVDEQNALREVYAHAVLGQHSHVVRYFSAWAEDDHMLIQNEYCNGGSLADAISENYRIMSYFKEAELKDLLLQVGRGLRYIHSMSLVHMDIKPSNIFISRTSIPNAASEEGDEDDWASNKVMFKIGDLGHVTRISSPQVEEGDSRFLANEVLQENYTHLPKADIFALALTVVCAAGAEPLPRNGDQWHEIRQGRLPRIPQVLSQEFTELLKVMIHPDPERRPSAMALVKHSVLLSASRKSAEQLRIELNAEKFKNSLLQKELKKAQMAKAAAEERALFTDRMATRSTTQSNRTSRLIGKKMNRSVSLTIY

| Compound | IC50 (Wee1-like protein kinase [1]) [nM] | IC50 (LoVo [2]) [nM] | IC50 (Wee1-like protein kinase [3]) [nM] | remaining at 1 h [5] [%] | Vd [6] [L/kg] | AUC(0-t) at 24 h [7] [ng·h/mL] | half-life [8] [h] | bioavailability [9] [%] | clearance [10] [mL/min/kg] | AUC(0-t) at 24 h [11] [ng·h/mL] | remaining at 1 h [12] [%] | half-life [15] [h] | inhibition in vivo at 60 mg/kg (LoVo [4]) [%] | IC50 (A-427) [nM] | Activity [13] | Activity [14] |
| --- | --- | --- | --- | --- | --- | --- | --- | --- | --- | --- | --- | --- | --- | --- | --- | --- |
| C=CCn1c(=O)c2cnc(Nc3ccc(N4CCN(C)CC4)cc3)nc2n1-c1cccc(C(C)(C)O)n1 [ADAVOSERTIB] |  | 328 |  | 9.67 | 16.1 | 47.1 | 0.59 | 82.1 | 350 | 2320 | 32.7 | 1.67 | 70 | 311 |  | Toxic |
| C=CCn1c(=O)c2cnc(Nc3ccc(N4[C@@H]5CC[C@H]4CN(C)C5)cc3)nc2n1-c1cccc(-c2ncccn2)n1 | 26 | 243 | 166 | 82.3 | 13.4 | 124 | 1.38 | 91.3 | 128 | 6810 | 64.2 | 2.97 | 53 | 115 |  |  |
| C=CCn1c(=O)c2cnc(Nc3ccc(N4CCN(C)CC4)cc3)nc2n1-c1cccc(-c2ncc(C)cn2)n1 | 2.2 | 555 | 367 | 59.4 | 1.98 | 1160 | 1.65 | 83.1 | 14.2 | 58100 | 71.2 | 3.9 | 72 | 476 |  |  |
| C=CCn1c(=O)c2cnc(Nc3ccc(N4CCN(C)CC4)cc3)nc2n1-c1cccc(-c2ncccn2)n1 | 2.2 | 557 | 465 | 63.9 | 4.24 | 403 | 1.19 | 61.1 | 41.2 | 14800 | 79.8 | 1.74 |  | 399 |  |  |
| C=CCn1c(=O)c2cnc(Nc3ccc(N4CCN(C)CC4)cc3)nc2n1-c1ccc2c(n1)[C@@](O)(CC)CC2 [AZENOSERTIB] |  | 317 | 567 |  |  |  |  |  |  |  |  |  | 80 |  |  |  |

Compounds with a lower IC50 (LoVo [2]), results first:

| IC50 (Wee1-like protein kinase [1]) [nM] | IC50 (LoVo [2]) [nM] | IC50 (Wee1-like protein kinase [3]) [nM] | remaining at 1 h [5] [%] | Vd [6] [L/kg] | AUC(0-t) at 24 h [7] [ng·h/mL] | half-life [8] [h] | bioavailability [9] [%] | clearance [10] [mL/min/kg] | AUC(0-t) at 24 h [11] [ng·h/mL] | remaining at 1 h [12] [%] | half-life [15] [h] | Compound | inhibition in vivo at 60 mg/kg (LoVo [4]) [%] | IC50 (A-427) [nM] | Activity [13] | Activity [14] |
| --- | --- | --- | --- | --- | --- | --- | --- | --- | --- | --- | --- | --- | --- | --- | --- | --- |
| 2 | 166 | 401 | 78.5 | 5.6 | 699 | 2.55 | 48.5 | 23.8 | 20300 | 76.3 |  | C=CCn1c(=O)c2cnc(Nc3ccc(N4CCC(N5CCN(C)CC5)CC4)cc3)nc2n1-c1cccc(-c2cnccn2)n1 | 58 | 192 |  |  |
| 1.6 | 92 | 341 | 18 | 7.4 | 151 | 0.8 | 46.5 | 108 | 4200 | 65.2 |  | C=CCn1c(=O)c2cnc(Nc3ccc(N4CCN(CC)CC4)cc3)nc2n1-c1cccc(-c2cnccn2)n1 | 69 | 88 | Toxic |  |

From ChEMBL document CHEMBL5512688 (J Med Chem, 2024)
